As a reminder, the EC50 is the concentration at which the effect is half-maximal.

The subject of the test is RSV strain A2. Description: RSV Cellomics assay for RSV A2 antiviral activity (EC50-RSV-Hep2-96-Cellomics). In kind it is cell-based. The conditions noted are these: human respiratory syncytial virus, HEp-2, 72 h; Hep2 cells, RSV strain A2, MOI=0.05, 3 days, RSV F protein immunofluorescence; read-out: EC50-RSV-HEp2-96-Cellomics Example B1. The method, then: Example B1: RSV Cellomics Assay for RSV A2 Antiviral Activity (EC50-RSV-Hep2-96-Cellomics)
8×10^3 Hep2 cells are seeded into 96 well plates in 100 μL of media (DMEM supplemented with GlutaMAX, 10% FBS and Pen/Strep) and briefly spun at 50×g for 1 minute to attach cells. Cells were further allowed to attach with overnight incubation at 37° C.+5% CO2. The following day, the media was aspirated and 100 μL of fresh DMEM media containing 2% FBS was added. A three-fold dilution series of compounds of interest are then added to the plate using the Tecan D300e dispenser and the plate is normalized to the well with the highest volume of DMSO. The cells are next infected by adding 100 μL of media containing RSV strain A2 at an MOI=0.05 and the plates incubated for 3 days at 37° C.+5% CO2. Following the incubation, the media is removed, and the cells are washed once with 250 μL PBS and fixed with 250 μL ice-cold 100% methanol for 10 minutes at 4 C. The methanol is then removed and the plates air dried for 5 minutes and then washed once with 250 μL PBS to remove any residual methanol. The wells are then blocked 60 μL/well of BlockAid (B10710, Thermo-Fisher) for 1 hour at RT on rocker at which point the blocking buffer is carefully aspirated. Primary antibody against the RSV F protein (MAB 858-1) is then diluted 1:2000 in SuperBlock (37515, Thermo Fisher) and 50 μL of the primary antibody solution is added to each well. The plates are incubated at room temperature for 1 hour with gentle agitation and then washed with 250 μL of PBS-Tween 3 times. A goat anti-mouse AlexaFluor 647 conjugated secondary antibody (Sigma, A21235) is then diluted 1:2000 and Hoescht 33342 (H3570) at 1:1000 in SuperBlock and 50 μL added to the wells for 1 hour at 37° C. After incubation the antibody solution is aspirated, and the wells are then washed with 250 μL of PBS-Tween 3 times. To keep cells from drying out, 100 μL of PBS is added to each well and the plates are sealed with black plate seal. Fluorescence at the 647 nm wavelength is measured using a Cellomics CellInsight CX7 machine. Compound activity is determined as a percentage of the % positive cells (or average intensity) compared to DMSO treated RSV infected well controls following subtraction of uninfected controls. The EC50 values are then calculated using nonlinear regression analysis in GraphPad Prism.

In the case of `N#Cc1cc(F)cc(CO[C@H](COCCCCCCCCCCCCCCCCCC(F)(F)F)COP(=O)(O)OC[C@@]2(C#N)O[C@@H](c3ccc4c(N)ncnn34)[C@H](O)[C@@H]2O)c1` [Compound 1, ((2R,3S,4R,5S)-5-(4-aminopyrrolo[2,1-f][1,2,4]triazin-7-yl)-2-cyano-3,4-dihydroxytetrahydrofuran-2-yl)methyl ((R)-2-((3-cyano-5-fluorobenzyl)oxy)-3-((18,18,18-trifluorooctadecyl)oxy)propyl) hydrogen phosphate], the 50% effective concentration (EC50) stood at 76 nM. The figure for `N#Cc1cc(F)cc(CO[C@H](CCCCCCCCCCCCCCCCCCC(F)(F)F)COP(=O)(O)OC[C@@]2(C#N)O[C@@H](c3ccc4c(N)ncnn34)[C@H](O)[C@@H]2O)c1` [Compound 2, ((2R,3S,4R,5S)-5-(4-aminopyrrolo[2,1-f][1,2,4]triazin-7-yl)-2-cyano-3,4-dihydroxytetrahydrofuran-2-yl)methyl ((R)-2-((3-cyano-5-fluorobenzyl)oxy)-21,21,21-trifluorohenicosyl) hydrogen phosphate] is 241 nM.

(Values after patent US20240309028A1, “PHOSPHOLIPID COMPOUNDS AND METHODS OF MAKING AND USING THE SAME” (Gilead Sciences, Inc., priority 2023, published 2024).)
